In US12643910B2, “Substituted pyrazolo[3,4-b]pyridines as ectonucleotide pyrophosphatase/phosphodiesterase 1 (ENPP1) modulators” (SANFORD BURNHAM PREBYS MEDICAL DISCOVERY INSTITUTE, priority 2019, dated 2026):

Molecular target: T1, human ENPP1 (Homo sapiens, UniProt P22413)
T1 construct: made in house
T1 sequence (P22413 1-925): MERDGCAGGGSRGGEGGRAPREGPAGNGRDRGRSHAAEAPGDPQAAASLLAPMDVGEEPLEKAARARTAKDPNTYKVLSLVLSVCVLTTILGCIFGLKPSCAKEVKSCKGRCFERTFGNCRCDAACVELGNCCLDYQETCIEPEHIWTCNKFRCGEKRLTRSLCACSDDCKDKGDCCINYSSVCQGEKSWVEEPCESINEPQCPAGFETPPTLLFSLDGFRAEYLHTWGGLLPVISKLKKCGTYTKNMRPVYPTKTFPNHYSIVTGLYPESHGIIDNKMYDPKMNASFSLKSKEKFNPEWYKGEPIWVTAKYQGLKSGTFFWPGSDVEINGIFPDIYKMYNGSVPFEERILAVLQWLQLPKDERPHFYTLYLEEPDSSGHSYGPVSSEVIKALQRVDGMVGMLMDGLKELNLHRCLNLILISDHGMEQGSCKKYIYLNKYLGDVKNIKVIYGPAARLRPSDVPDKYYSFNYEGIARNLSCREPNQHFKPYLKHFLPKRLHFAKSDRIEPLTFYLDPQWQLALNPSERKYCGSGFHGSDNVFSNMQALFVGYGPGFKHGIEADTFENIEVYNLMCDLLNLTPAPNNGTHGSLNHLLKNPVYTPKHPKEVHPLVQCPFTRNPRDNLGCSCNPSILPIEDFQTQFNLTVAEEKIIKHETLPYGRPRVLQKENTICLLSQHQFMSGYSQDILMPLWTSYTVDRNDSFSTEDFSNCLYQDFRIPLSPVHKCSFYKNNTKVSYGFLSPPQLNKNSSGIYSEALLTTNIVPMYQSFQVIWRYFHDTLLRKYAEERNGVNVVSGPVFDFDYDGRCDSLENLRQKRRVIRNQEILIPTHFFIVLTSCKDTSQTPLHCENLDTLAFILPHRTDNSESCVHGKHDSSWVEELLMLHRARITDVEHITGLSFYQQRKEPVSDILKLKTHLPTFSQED
Experiment: ENPP1 assay with ATP substrate (Transcreener AMP2/GMP2 TR-FRET)
Assay type: biochemical
Settings: 1 hour at room temperature
Description: Example B1: ENPP1 Assay with ATP Substrate
Ectonucleotide pyrophosphatase/phosphodiesterase 1 (ENPP1) hydrolyzes ATP, breaking it down into 5′-AMP and pyrophosphate. The 5′-AMP formed from the reaction is detected by Transcreener® AMP2/GMP2 TR-FRET Assay (Bellbrook), containing AMP-tracer (HiLyte 647) and anti-AMP Terbium (Tb) donor. 5′-AMP generated in the reaction competes with AMP-tracer for binding with Anti-AMP Tb donor, and decreases TR-FRET signal.
Different concentrations of ENPP1 inhibitors are added to dry assay plate, followed by 2 μl 300 nM ATP. The reaction is initiated with the addition of 2 μl 8.5 μM human ENPP1 (generated by SBP Protein group). The assay reaction mixture contains a buffer of 50 mM Tris, pH 7.5, 1 mM TCEP, 2 mM MgCl2, 0.005% Tween 20, and 1% DMSO. The reaction is stopped after 1 hour at room temperature by adding 2 μL of 2 nM AMP-tracer and 2 μl of 2 nM Anti-AMP Tb donor in the 50 mM Tris, pH 7.5, buffer containing 20 mM EDTA and 0.1% Prionex. After 2 hour additional incubation at room temperature, the generated signal is measured using BMG Lab PHERASTAR instrument. 100% activity control samples (containing enzyme, substrate, buffer: MAX) and no enzyme control samples (containing substrate and buffer: MIN) are utilized to calculate percent inhibition (%) for each compound concentration well (COMPOUND) as follows.
The IC50 values are determined by fitting the inhibition curves with 2-parameter variable slope model in Graphpad Prism software using percent inhibition vs compound concentration data: […]

SMILES | IC50 [µM]
Cn1ncc2c(NCc3ccccn3)nc(-c3ccccn3)nc21 [Example 2.19, 1-Methyl-6-(pyridin-2-yl)-N-(pyridin-2-ylmethyl)-1H-pyrazolo[3,4-d]pyrimidin-4-amine] | > 20
Cn1ncc2c(NCc3ccc(Cl)cc3)nc(-c3ccccn3)nc21 [Example 2.13, N-(4-Chlorobenzyl)-1-methyl-6-(pyridin-2-yl)-1H-pyrazolo[3,4-d]pyrimidin-4-amine] | > 20
Cc1ccncc1CCCNC1CCN(c2nc(Cl)nc3c(C)csc23)CC1 [Example 3.68, 1-(2-Chloro-7-methylthieno[3,2-d]pyrimidin-4-yl)-N-(3-(4-methylpyridin-3-yl)propyl)piperidin-4-amine] | 1 to 20
Cn1ncc2c(NCc3ccncc3)nc(-c3ccccn3)nc21 [Example 2.17, 1-Methyl-6-(pyridin-2-yl)-N-(pyridin-4-ylmethyl)-1H-pyrazolo[3,4-d]pyrimidin-4-amine] | 1 to 20
Cn1ncc2c(NCc3cccnc3)nc(-c3ccccn3)nc21 [Example 2.18, 1-Methyl-6-(pyridin-2-yl)-N-(pyridin-3-ylmethyl)-1H-pyrazolo[3,4-d]pyrimidin-4-amine] | > 20
Cc1csc2c(N3CCC(NCC4CC4c4ccncc4)CC3)ncnc12 (stereo not shown) [Example 3.81, 1-(7-Methylthieno[3,2-d]pyrimidin-4-yl)-N-((2-(pyridin-4-yl)cyclopropyl)methyl)piperidin-4-amine] | 0.1 to 1
CN(c1nc(-c2ccccn2)nc2scc(-c3ccccc3)c12)C1CCCC1 [Example 1.36, Cyclopentyl-methyl-(5-phenyl-2-pyridin-2-yl-thieno[2,3-d]pyrimidin-4-yl)-amine] | > 20
Cn1ncc2c(NCc3ccccc3)nc(-c3ccccn3)nc21 [Example 2.9, N-Benzyl-1-methyl-6-(pyridin-2-yl)-1H-pyrazolo[3,4-d]pyrimidin-4-amine] | > 20
Cn1ncc2c(NCc3ccc(S(N)(=O)=O)cc3)nc(-c3ccccc3)nc21 [Example 2, 4-(((1-Methyl-6-phenyl-1H-pyrazolo[3,4-d]pyrimidin-4-yl)amino)methyl)-benzenesulfonamide] | 1 to 20
O=C(CCc1ccc(F)cc1)NC1CCN(c2ncnc3c(Cl)csc23)CC1 [Example 3.64, N-(1-(7-Chlorothieno[3,2-d]pyrimidin-4-yl)piperidin-4-yl)-3-(4-fluorophenyl)propanamide] | 1 to 20
Cn1ncc2c(NCc3cccc(F)c3)nc(-c3ccccn3)nc21 [Example 2.12, N-(3-Fluorobenzyl)-1-methyl-6-(pyridin-2-yl)-1H-pyrazolo[3,4-d]pyrimidin-4-amine] | > 20
COc1ccc(CNc2nc(-c3ccccn3)nc3c2cnn3C)cc1 [Example 2.11, N-(4-Methoxybenzyl)-1-methyl-6-(pyridin-2-yl)-1H-pyrazolo[3,4-d]pyrimidin-4-amine] | > 20
Cc1ccncc1CCCNC1CCN(c2nc(NCCO)nc3c(C)csc23)CC1 [Example 3.71, 2-((7-Methyl-4-(4-((3-(4-methylpyridin-3-yl)propyl)amino)piperidin-1-yl)thieno[3,2-d]pyrimidin-2-yl)amino)ethanol] | 0.1 to 1
CNc1nc(N2CCC(NCCCc3cnccc3C)CC2)c2scc(C)c2n1 [Example 3.69, N,7-Dimethyl-4-(4-((3-(4-methylpyridin-3-yl)propyl)amino)piperidin-1-yl)thieno[3,2-d]pyrimidin-2-amine] | 1 to 20
Cn1ncc2c(NCc3ccc(S(N)(=O)=O)cc3)nc(-c3cccnc3)nc21 [Example 2.15, 4-(((1-Methyl-6-(pyridin-3-yl)-1H-pyrazolo[3,4-d]pyrimidin-4-yl)amino)methyl)-benzenesulfonamide] | 1 to 20
Cn1ncc2c(NCc3cccs3)nc(-c3ccccn3)nc21 [Example 2.21, 1-Methyl-6-(pyridin-2-yl)-N-(thiophen-2-ylmethyl)-1H-pyrazolo[3,4-d]pyrimidin-4-amine] | > 20

SMILES | IC50 [µM]
Cn1ncc2c(NCc3ccc(S(N)(=O)=O)cc3)nc(-c3ccncc3)nc21 [Example 2.16, 4-(((1-Methyl-6-(pyridin-4-yl)-1H-pyrazolo[3,4-d]pyrimidin-4-yl)amino)methyl)-benzenesulfonamide] | > 20
Cc1csc2c(N3CCC(NCC4CC4c4ccncc4)CC3)nc(Cl)nc12 (stereo not shown) [Example 3.80, 1-(2-Chloro-7-methylthieno[3,2-d]pyrimidin-4-yl)-N-((2-(pyridin-4-yl)cyclopropyl)methyl)piperidin-4-amine] | 1 to 20
c1ccc(-c2csc3nc(-c4ccccn4)nc(NCc4ccco4)c23)cc1 [Example 1.35, Furan-2-ylmethyl-(5-phenyl-2-pyridin-2-yl-thieno[2,3-d]pyrimidin-4-yl)-amine] | 1 to 20
Cn1ncc2c(NCc3ccco3)nc(-c3ccccn3)nc21 [Example 2.23, N-(Furan-2-ylmethyl)-1-methyl-6-(pyridin-2-yl)-1H-pyrazolo[3,4-d]pyrimidin-4-amine] | > 20
Cc1ccncc1/C=C/CNC1CCN(c2ncnc3c(Br)csc23)CC1 [Example 3.62, (E)-1-(7-Bromothieno[3,2-d]pyrimidin-4-yl)-N-(3-(4-methylpyridin-3-yl)allyl)piperidin-4-amine] | < 0.1
Cc1csc2nc(-c3ccccn3)nc(NCc3ccc(S(N)(=O)=O)s3)c12 [Example 1.37, 5-(((5-Methyl-2-(pyridin-2-yl)thieno[2,3-d]pyrimidin-4-yl)amino)methyl)thiophene-2-sulfonamide] | > 20
Cc1csc2c(N3CCC(NCCCc4ccncc4)CC3)nc(Cl)nc12 [Example 3.65, 1-(2-Chloro-7-methylthieno[3,2-d]pyrimidin-4-yl)-N-(3-(pyridin-4-yl)propyl)piperidin-4-amine] | 1 to 20
c1ccc(-c2csc3nc(-c4ccccn4)nc(NCc4ccccn4)c23)cc1 [Example 1.2, (5-Phenyl-2-pyridin-2-yl-thieno[2,3-d]pyrimidin-4-yl)-pyridin-2-ylmethyl-amine] | > 20
Cn1ncc(CNc2nc(-c3ccccn3)nc3scc(-c4ccccc4)c23)c1N [Example 1.34, (5-Amino-1-methyl-1H-pyrazol-4-ylmethyl)-(5-phenyl-2-pyridin-2-yl-thieno[2,3-d]pyrimidin-4-yl)-amine] | 1 to 20
Cc1csc2c(N3CCC(NC/C=C/c4ccncc4)CC3)ncnc12 [Example 3.76, (E)-1-(7-methylthieno[3,2-d]pyrimidin-4-yl)-N-(3-(pyridin-4-yl)allyl)piperidin-4-amine] | 0.1 to 1
Cc1ccncc1CCCNC1CCN(c2ncnc3ccsc23)CC1 [Example 3.63, N-(3-(4-Methylpyridin-3-yl)propyl)-1-(thieno[3,2-d]pyrimidin-4-yl)piperidin-4-amine] | 1 to 20
Cc1csc2c(N3CCC(NC(=O)C4CC4c4ccccc4)CC3)ncnc12 (stereo not shown) [Example 3.79, N-(1-(7-Methylthieno[3,2-d]pyrimidin-4-yl)piperidin-4-yl)-2-phenylcyclopropanecarboxamide] | 1 to 20
Cc1ccc(CNc2nc(-c3ccccn3)nc3c2cnn3C)o1 [Example 2.22, 1-Methyl-N-((5-methylfuran-2-yl)methyl)-6-(pyridin-2-yl)-1H-pyrazolo[3,4-d]pyrimidin-4-amine] | > 20
NS(=O)(=O)c1cccc(CNc2nc(-c3ccccn3)nc3scc(-c4ccccc4)c23)c1 [Example 1.12, 3-[(5-Phenyl-2-pyridin-2-yl-thieno[2,3-d]pyrimidin-4-ylamino)-methyl]-benzenesulfonamide] | 1 to 20
COc1nc(N2CCC(NCCCc3cnccc3C)CC2)c2scc(C)c2n1 [Example 3.70, 1-(2-Methoxy-7-methylthieno[3,2-d]pyrimidin-4-yl)-N-(3-(4-methylpyridin-3-yl)propyl)piperidin-4-amine] | 0.1 to 1
